In patent publication US20250346592A1 (Celgene Corporation, priority 2022, published 2025):

target: hPAD4 enzyme (Homo sapiens (Human), UniProt Q9UM07); assay: RFMS2 assay (RapidFire mass spectrometry, TSTGGRQGSHH peptide substrate); format: biochemical; conditions: 35 nM recombinant human PAD4, 500 μM TSTGGRQGSHH peptide, 30 minutes at room temperature; read-out: RFMS 2 IC50
Procedure: Stock compounds were dissolved and stored in 100% DMSO. Compound solutions were prepared via serial dilution at 3-fold intervals in DMSO with top compound concentration at 20 μM in each assay. 0.25 μl of compound solution was transferred from the compound plate to the assay plate by using an acoustic dispenser.
• Total reaction volume: 25 μl • Assay buffer: […] pH 7.4, 200 mM NaCl, 2 mM CaCl2, 5 mM DTT • 35 nM recombinant human PAD4 • 500 μM TSTGGRQGSHH peptide • 1.2% DMSO • Stop solution: 10% formic acid
Reaction mixtures were incubated at room temperature for 30 minutes. 10 μl each of the reaction mixtures was then mixed with 40 μl of 10% formic acid in a microtiter plate. The plate was frozen at −80° C. before shipping out on dry ice for RapidFire mass spectroscopy analysis.
Thawed samples were loaded onto the Rapid Fire 300 system (Agilent) wherein they were first sipped for 250 ms and then loaded onto a Agilent “C” (C18) cartridge using a mobile phase of water containing 0.09% formic acid/0.01% trifluoroacetic acid for 3000 ms desalting flowing at a rate of 1.5 ml/min. Once the samples were loaded and washed, a mobile phase of acetonitrile containing 0.09% formic acid/0.01% trifluoroacetic acid was used to elute the samples directly onto a Sciex API4000 triple quadrupole mass spectrometer for 3000 ms at a flow rate of 1.25 ml/min.
MRM transitions for substrate and product were monitored in positive ESI mode at m/z=562.3/969.7 and m/z=562.8/541.3 respectively. The dwell time for each transition was set at 100 ms, and the ESI voltage was used at 5500 with a source temperature of 650° C. Extracted ion peaks for each transition were integrated using the Rapid Fire Integrator software.
Compounds having an activity designated as “A” provided an IC50≤10 nM; compounds having an activity designated as “B” provided an IC50 11-100 nM; compounds having an activity designated as “C” provided an IC50 101-500 nM; compounds having an activity designated as “D” provided an IC50 501-1000 nM; compounds having an activity designated as “E” provided an IC50>1000 nM.

Chain of hPAD4 enzyme (Q9UM07 whole entry): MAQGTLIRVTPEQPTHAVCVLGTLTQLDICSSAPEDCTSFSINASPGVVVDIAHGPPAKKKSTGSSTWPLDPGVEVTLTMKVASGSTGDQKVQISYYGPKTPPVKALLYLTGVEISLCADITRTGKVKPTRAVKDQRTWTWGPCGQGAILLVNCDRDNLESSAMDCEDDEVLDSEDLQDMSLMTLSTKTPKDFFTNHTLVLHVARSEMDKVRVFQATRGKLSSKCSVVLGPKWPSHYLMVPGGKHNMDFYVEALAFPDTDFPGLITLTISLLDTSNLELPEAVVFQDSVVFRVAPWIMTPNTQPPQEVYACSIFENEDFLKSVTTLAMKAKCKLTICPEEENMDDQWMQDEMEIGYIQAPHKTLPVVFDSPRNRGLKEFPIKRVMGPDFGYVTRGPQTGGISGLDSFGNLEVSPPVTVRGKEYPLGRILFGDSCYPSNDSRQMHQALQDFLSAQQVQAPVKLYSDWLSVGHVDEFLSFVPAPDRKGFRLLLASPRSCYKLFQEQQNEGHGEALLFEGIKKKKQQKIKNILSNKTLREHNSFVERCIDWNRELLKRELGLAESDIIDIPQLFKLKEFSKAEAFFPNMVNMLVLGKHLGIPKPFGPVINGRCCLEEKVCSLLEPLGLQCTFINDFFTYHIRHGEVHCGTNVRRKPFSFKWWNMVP

First: COCC(C)c1ccc2cc(-c3nc4cc5c(cc4n3C)CCN(C[C@@H](C)N)C5=O)n(CC3CC3)c2c1 (single isomer, unassigned) [Example 40]
Second: COc1ccc2cc(-c3nc4cc5c(cc4n3C)CCN(C[C@@H](C)N)C5=O)n(CC3CC3)c2c1 [Example 18, (R)-6-(2-aminopropyl)-2-(1-(cyclopropylmethyl)-6-methoxy-1H-indol-2-yl)-1-methyl-1,6,7,8-tetrahydro-5H-imidazo[4,5-g]isoquinolin-5-one]
The IC50 of the first is higher: greater than 1000 nM for the first, 101 to 500 nM for the second. The second is the more potent here.

`COCC(C)c1ccc2cc(-c3nc4cc5c(cc4n3C)CCN(C[C@@H](C)N)C5=O)n(CC3CC3)c2c1` (single isomer, unassigned) [Example 41] and `Cc1ccc2cc(-c3nc4cc5c(cc4n3C)CCN(C[C@@H](C)N)C5=O)n(CC3CC3)c2c1` [Example 29, (R)-6-(2-aminopropyl)-2-(1-(cyclopropylmethyl)-6-methyl-1H-indol-2-yl)-1-methyl-1,6,7,8-tetrahydro-5H-imidazo[4,5-g]isoquinolin-5-one] fall in the same range of IC50: 101 to 500 nM for the first, 101 to 500 nM for the second.

Compared with `COCC(C)n1c(-c2nc3cc4c(cc3n2C)CCN(C[C@H](N)CF)C4=O)cc2cccc(OC)c21` (single isomer, unassigned) [Example 123a], `COc1cccc2cc(-c3nc4cc5c(cc4n3C)CCN(C[C@H](N)CF)C5=O)n(CC(C)OC)c12` (single isomer, unassigned) [Example 130] is lower in IC50: greater than 1000 nM for the first, 101 to 500 nM for the second. The second is the more potent here.

First: COc1cccc2cc(-c3nc4cc5c(cc4n3C)CCN(C[C@H](N)CF)C5=O)n(CC(C)OC)c12 (single isomer, unassigned) [Example 131]
Second: CC(C)c1cccc2cc(-c3nc4cc5c(cc4n3C)CCN(C[C@@H](C)N)C5=O)n(CC3CC3)c12 [Example 19, (R)-6-(2-aminopropyl)-2-(1-(cyclopropylmethyl)-7-isopropyl-1H-indol-2-yl)-1-methyl-1,6,7,8-tetrahydro-5H-imidazo[4,5-g]isoquinolin-5-one]
The IC50 of the first is higher: 501 to 1000 nM for the first, 101 to 500 nM for the second. The second is the more potent here.

First: Cn1c(-c2cc3cccc(OCCC4CNC(=O)C4)c3n2CC2CC2)nc2cc3c(cc21)CCN(C[C@H](N)CF)C3=O (single isomer, unassigned) [Example 178]
Second: Cn1c(-c2cc3cccc(OCC4(C)CNC(=O)C4)c3n2CC2CC2)nc2cc3c(cc21)CCN(C[C@H](N)CF)C3=O (single isomer, unassigned) [Example 220]
The IC50 of the first is lower: 101 to 500 nM for the first, 501 to 1000 nM for the second.

`Cn1c(-c2cc3cccc(OCCC4CNC(=O)C4)c3n2CC2CC2)nc2cc3c(cc21)CCN(C[C@H](N)CF)C3=O` (single isomer, unassigned) [Example 179] and `Cn1c(-c2cc3cccc(OCC4(C)CNC(=O)C4)c3n2CC2CC2)nc2cc3c(cc21)CCN(C[C@H](N)CF)C3=O` (single isomer, unassigned) [Example 221] fall in the same range of IC50: 101 to 500 nM for the first, 101 to 500 nM for the second.

Compared with `CCN[C@H](C)CN1CCc2cc3c(cc2C1=O)nc(-c1cc2ccccc2n1CC1CC1)n3C` [Example 2, (R)-2-(1-(cyclopropylmethyl)-1H-indol-2-yl)-6-(2-(ethylamino)propyl)-1-methyl-1,6,7,8-tetrahydro-5H-imidazo[4,5-g]isoquinolin-5-one], `CCCN[C@H](C)CN1CCc2cc3c(cc2C1=O)nc(-c1cc2ccccc2n1CC1CC1)n3C` [Example 4, (R)-2-(1-(cyclopropylmethyl)-1H-indol-2-yl)-1-methyl-6-(2-(propylamino)propyl)-1,6,7,8-tetrahydro-5H-imidazo[4,5-g]isoquinolin-5-one] is higher in IC50: 501 to 1000 nM for the first, greater than 1000 nM for the second. The first is the more potent here.

First: Cn1c(-c2cc3ccccc3n2CC2CC2)nc2cc3c(cc21)CCN(CC(N)CC(F)(F)F)C3=O (centres unmarked) [Example 7, 6-(2-amino-4,4,4-trifluorobutyl)-2-(1-(cyclopropylmethyl)-1H-indol-2-yl)-1-methyl-1,6,7,8-tetrahydro-5H-imidazo[4,5-g]isoquinolin-5-one]
Second: C[C@@H](N)CN1CCc2cc3c(cc2C1=O)nc(-c1cc2ccc(C(F)(F)F)cc2n1CC1CC1)n3C [Example 20, (R)-6-(2-aminopropyl)-2-(1-(cyclopropylmethyl)-6-(trifluoromethyl)-1H-indol-2-yl)-1-methyl-1,6,7,8-tetrahydro-5H-imidazo[4,5-g]isoquinolin-5-one]
The IC50 of the first is higher: greater than 1000 nM for the first, 101 to 500 nM for the second.

`Cn1c(-c2cc3ccccc3n2CC2CC2)nc2cc3c(cc21)CCN(CC1CNCCN1)C3=O` (centres unmarked) [Example 8, 2-(1-(cyclopropylmethyl)-1H-indol-2-yl)-1-methyl-6-(piperazin-2-ylmethyl)-1,6,7,8-tetrahydro-5H-imidazo[4,5-g]isoquinolin-5-one] and `Cc1ccc2c(c1)cc(-c1nc3cc4c(cc3n1C)CCN(C[C@@H](C)N)C4=O)n2CC1CC1` [Example 26, (R)-6-(2-aminopropyl)-2-(1-(cyclopropylmethyl)-5-methyl-1H-indol-2-yl)-1-methyl-1,6,7,8-tetrahydro-5H-imidazo[4,5-g]isoquinolin-5-one] cannot be ordered by IC50: greater than 1000 nM for the first, greater than 1000 nM for the second.

`Cc1ccc2cc(-c3nc4cc5c(cc4n3C)CCN(C[C@@H](C)N)C5=O)n(CC3CC3)c2c1C` [Example 16, (R)-6-(2-aminopropyl)-2-(1-(cyclopropylmethyl)-6,7-dimethyl-1H-indol-2-yl)-1-methyl-1,6,7,8-tetrahydro-5H-imidazo[4,5-g]isoquinolin-5-one] and `Cc1cccc2cc(-c3nc4cc5c(cc4n3C)CCN(C[C@@H](C)N)C5=O)n(CC3CC3)c12` [Example 17, (R)-6-(2-aminopropyl)-2-(1-(cyclopropylmethyl)-7-methyl-1H-indol-2-yl)-1-methyl-1,6,7,8-tetrahydro-5H-imidazo[4,5-g]isoquinolin-5-one] fall in the same range of IC50: 101 to 500 nM for the first, 101 to 500 nM for the second.

`C[C@@H](N)CN1CCc2cc3c(cc2C1=O)nc(-c1cc2ccc(F)nc2n1CC1CC1)n3C` [Example 21, (R)-6-(2-aminopropyl)-2-(1-(cyclopropylmethyl)-6-fluoro-1H-pyrrolo[2,3-b]pyridin-2-yl)-1-methyl-1,6,7,8-tetrahydro-5H-imidazo[4,5-g]soquinolin-5-one] and `C[C@@H](N)CN1CCc2cc3c(cc2C1=O)nc(-c1cc2cccc(F)c2n1CC1CC1)n3C` [Example 30, (R)-6-(2-aminopropyl)-2-(1-(cyclopropylmethyl)-7-fluoro-1H-indol-2-yl)-1-methyl-1,6,7,8-tetrahydro-5H-imidazo[4,5-g]isoquinolin-5-one] fall in the same range of IC50: 101 to 500 nM for the first, 101 to 500 nM for the second.

Compared with `C[C@@H](N)CN1CCc2cc3c(cc2C1=O)nc(-c1cc2ccnc(Cl)c2n1CC1CC1)n3C` [Example 22, (R)-6-(2-aminopropyl)-2-(7-chloro-1-(cyclopropylmethyl)-1H-pyrrolo[2,3-c]pyridin-2-yl)-1-methyl-1,6,7,8-tetrahydro-5H-imidazo[4,5-g]isoquinolin-5-one], `COc1nccc2cc(-c3nc4cc5c(cc4n3C)CCN(C[C@@H](C)N)C5=O)n(CC3CC3)c12` [Example 31, (R)-6-(2-aminopropyl)-2-(1-(cyclopropylmethyl)-7-methoxy-1H-pyrrolo[2,3-c]pyridin-2-yl)-1-methyl-1,6,7,8-tetrahydro-5H-imidazo[4,5-g]isoquinolin-5-one] is lower in IC50: greater than 1000 nM for the first, 501 to 1000 nM for the second. The second is the more potent here.

First: Cc1c(-c2nc3cc4c(cc3n2C)CCN(C[C@@H](C)N)C4=O)n(CC2CC2)c2ccccc12 [Example 23, (R)-6-(2-aminopropyl)-2-(1-(cyclopropylmethyl)-3-methyl-1H-indol-2-yl)-1-methyl-1,6,7,8-tetrahydro-5H-imidazo[4,5-g]isoquinolin-5-one]
Second: C[C@@H](N)CN1CCc2cc3c(cc2C1=O)nc(-c1cc2ccc(Cl)cc2n1CC1CC1)n3C [Example 25, (R)-6-(2-aminopropyl)-2-(6-chloro-1-(cyclopropylmethyl)-1H-indol-2-yl)-1-methyl-1,6,7,8-tetrahydro-5H-imidazo[4,5-g]isoquinolin-5-one]
The IC50 of the first is higher: greater than 1000 nM for the first, 101 to 500 nM for the second. The second is the more potent here.

Compared with `C[C@@H](N)CN1CCc2cc3c(cc2C1=O)nc(-c1cc2ccncc2n1CC1CC1)n3C` [Example 24, (R)-6-(2-aminopropyl)-2-(1-(cyclopropylmethyl)-1H-pyrrolo[2,3-c]pyridin-2-yl)-1-methyl-1,6,7,8-tetrahydro-5H-imidazo[4,5-g]isoquinolin-5-one], `C[C@@H](N)CN1CCc2cc3c(cc2C1=O)nc(-c1cc2cccc(C#N)c2n1CC1CC1)n3C` [Example 27, (R)-2-(6-(2-aminopropyl)-1-methyl-5-oxo-5,6,7,8-tetrahydro-1H-imidazo[4,5-g]isoquinolin-2-yl)-1-(cyclopropylmethyl)-1H-indole-7-carbonitrile] is lower in IC50: greater than 1000 nM for the first, 501 to 1000 nM for the second. The second is the more potent here.

In the case of `CCc1cccc2cc(-c3nc4cc5c(cc4n3C)CCN(C[C@@H](C)N)C5=O)n(CC3CC3)c12` [Example 28, (R)-6-(2-aminopropyl)-2-(1-(cyclopropylmethyl)-7-ethyl-1H-indol-2-yl)-1-methyl-1,6,7,8-tetrahydro-5H-imidazo[4,5-g]isoquinolin-5-one], the IC50 is reported as 101 to 500 nM.
